pIC50: −log10 of the molar value.
Target: T1, Wt EGFR (Homo sapiens, UniProt P00533)
T1 construct: isolated from A431 human epidermoid carcinoma cells which overexpress EGF receptor; endogenous in cells; host or cells: A431 human epidermoid carcinoma cells (receptor purified on wheat germ agglutinin sepharose)
Experiment: Enzyme assay, IC50 for wt EGFR (Caliper)
Type: biochemical
Details: enzyme phosphorylation assay; read-out: EGFR_WT IC50

T1 sequence (P00533 25-1210): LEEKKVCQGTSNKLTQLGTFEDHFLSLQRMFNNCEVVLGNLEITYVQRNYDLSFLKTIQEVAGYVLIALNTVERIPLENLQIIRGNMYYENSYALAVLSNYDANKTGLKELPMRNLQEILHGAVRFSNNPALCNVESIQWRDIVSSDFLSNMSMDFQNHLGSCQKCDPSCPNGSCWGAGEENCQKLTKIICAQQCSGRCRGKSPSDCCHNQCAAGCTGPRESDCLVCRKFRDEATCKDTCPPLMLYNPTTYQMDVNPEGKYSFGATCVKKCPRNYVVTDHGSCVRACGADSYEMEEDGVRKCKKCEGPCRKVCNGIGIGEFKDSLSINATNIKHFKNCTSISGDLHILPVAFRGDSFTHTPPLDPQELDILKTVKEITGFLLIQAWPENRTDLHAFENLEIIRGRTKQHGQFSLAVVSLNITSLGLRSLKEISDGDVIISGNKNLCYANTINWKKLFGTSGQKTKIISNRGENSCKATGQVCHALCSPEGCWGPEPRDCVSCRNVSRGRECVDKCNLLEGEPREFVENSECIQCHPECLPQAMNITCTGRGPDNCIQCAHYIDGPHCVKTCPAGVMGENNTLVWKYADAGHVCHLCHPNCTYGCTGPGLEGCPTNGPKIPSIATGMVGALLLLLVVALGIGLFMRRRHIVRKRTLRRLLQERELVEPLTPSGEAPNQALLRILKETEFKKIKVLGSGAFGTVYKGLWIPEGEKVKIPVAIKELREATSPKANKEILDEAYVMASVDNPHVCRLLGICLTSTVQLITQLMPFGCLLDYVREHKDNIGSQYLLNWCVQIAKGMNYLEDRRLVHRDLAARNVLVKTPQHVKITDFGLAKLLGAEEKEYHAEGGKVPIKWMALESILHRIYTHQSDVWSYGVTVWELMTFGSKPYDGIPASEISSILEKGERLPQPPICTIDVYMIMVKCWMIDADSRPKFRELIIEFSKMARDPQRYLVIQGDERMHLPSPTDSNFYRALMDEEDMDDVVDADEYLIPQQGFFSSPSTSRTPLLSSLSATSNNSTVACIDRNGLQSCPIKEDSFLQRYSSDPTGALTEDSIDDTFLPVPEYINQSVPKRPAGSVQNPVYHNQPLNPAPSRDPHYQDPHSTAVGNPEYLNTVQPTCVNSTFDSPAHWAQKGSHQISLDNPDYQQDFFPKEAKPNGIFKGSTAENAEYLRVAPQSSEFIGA

- pIC50: 8.80
Structure (SMILES): C=CC(=O)Nc1cc(Nc2nccc(-c3c[nH]c4ccccc34)n2)c(OC)cc1N(C)CCN(C)C [AZD-5104]
